Where a name gives a salt, the structure may show the parent alone.

These results are taken from patent publication US20140039056A1, “BROMFENAC ORGANIC SALTS AND PREPARATION METHOD, COMPOSITION AND USE THEREOF” (SHENYANG XINGQI PHARMACEUTICAL CO., LTD., priority 2010, published 2014).

Data set [1] is described as follows: Tissue distribution test (muscle tissue under skin after application to the back). The settings on record: rats; for time at which distribution in tissue reaches maximum values (peak concentrations): muscle tissue under skin; for concentration distributed in tissue compared with bromfenac sodium: muscle tissue; for concentration at 0 h / concentration at 2 h / concentration at 4 h / concentration at 6 h / concentration at 8 h / concentration at 10 h: rat, 1 g preparation, Concentration in muscle tissue; for concentration at 0 h / concentration at 2 h / concentration at 4 h / concentration at 6 h / concentration at 8 h / concentration at 10 h / Concentration in muscle tissue: n = 3. Here is the method:
Preparation of bromfenac salt solutions: 0.25 g samples of bromfenac sodium, bromfenac diethylamine salt as prepared in Example 1 and bromfenac trometamol salt as prepared in Example 2 were precisely weighed separately, placed in 25 ml volumetric flasks respectively, metered volume to obtain stock solutions for standby use.
Chromatography conditions: detector: ultraviolet absorption detector (wavelength: 266 nm). Chromatography column: octadecyl silica gel column (4.6 mm×150 mm, 5 μm). Mobile phase: precisely weighed ammonium acetate 3.85 g, added with water to the metered volume of 1000 mL. 700 mL of this solution was taken and added with 300 mL acetonitrile. Flow rate: 1.0 mL/min.
Plotting standard curves: 200 μl samples of blank tissue were taken, separately added with 50 μl of series standard solutions of bromfenac sodium, bromfenac diethylamine salt and bromfenac trometamol salt separately, added with 50 μl of internal standard respectively, to form sample solutions with equivalent tissue concentrations of bromfenac sodium, bromfenac diethylamine salt and bromfenac trometamol salt as 50, 100, 250, 500, 1000, 5000, 10000 ng/ml, which were separately weighed precisely to take 20 μl and injected into chromatography and separately assayed.
1) On the test day, removed short hair on the back of rats were with a electric hair clipper to expose surface layer of skin, while trying to avoid breaking skin during hair cutting, and then washed unhairing region with a large quantity of water;
2) anesthetized rats using 10% chloral hydrate in anesthetic agent dose of 3.5 ml/kg;
3) randomly divided the rats into 3 groups, 15 rats per group. On the unhairing region of back, the rats of 3 groups were separately administered with 1 g of bromfenac sodium, bromfenac diethylamine and Bromfenac trometamol preparations, and the administration regions were covered with freshness-keeping plastic film;
4) executed rats before administration (0 hours) and at 2 hours, 4 hours, 6 hours, 8 hours, 10 hours after administration, took muscle tissues under skin of administration sites;
5) simply washed muscle tissues with physiological saline, then absorbed excessive water with filter paper;
6) precisely weighed 1 g of muscle tissue, cut into pieces, homogenizing with 3 ml of physiological saline in electric grinding mill. A homogeneous muscle tissue homogenate was obtained after muscle tissue was ground completely;
7) took […] of tissue sample, added with 50 μL of an internal standard solution, mixed homogeneously, added with 1 mL of methanol, mixed by vortex for 1 min, centrifuged for 5 min (3500 rpm), separated and placed upper layer organic phase into another tube, blow-dried with 37° C. air, dissolved the residue by adding 100 μL of mobile phase, mixed by vortex, and took 20 μL to perform HPLC analysis.

For data set [2], the system named is swelling of auricle caused by xylene in mice. The data set is described as follows: Test of effects on swelling of auricle caused by xylene in mice. In kind it is in vivo. The settings on record: for effect on swelling of auricle caused by xylene in mice: in words; for Swelling degree: weight difference between two ears, lavage 50 mL/Kg of 1 g/100 ml solution twice per day for 7 days, mice. Here is the method:
Test grouping: 40 mice, bodyweight 20±2 g, randomly divided into 4 groups, 10 mice per group, i.e., physiological control group, bromfenac sodium group, bromfenac diethylamine salt group, and bromfenac trometamol salt group.
Test method: the mice of each test group were administered with physiological saline, solution of bromfenac sodium, solution of bromfenac diethylamine salt and solution of bromfenac trometamol salt, twice per day via lavage in lavage dose of 50 mL/Kg, for consecutive 7 days, 1 h after the last administration, xylene in dose of 0.05 mL/mouse was coated on right ears of mice of each test group, while their left ears were used as control, the mice were executed after 30 min, ear parts that were at the same place and had the same area were cut from both ears by a puncher with a diameter of 6 mm, and weighed with ten thousandth electronic analytical balance, and the weight difference between two ears was used as index of swelling.

In data set [3] the test system is swelling of foot caused by egg white in rats. Description: Test of effects on swelling of foot caused by egg white in rats. In kind it is in vivo. The settings on record: for effect on voix pedis swelling caused by egg white in rats: within 0.5 hours to 6 hours, versus physiological saline control group, in words. Here is the method:
Test grouping: 40 rats, bodyweight 200-220 g, randomly divided into 4 groups, 10 rats per group, i.e., physiological saline control group, bromfenac sodium group, bromfenac diethylamine salt group, and bromfenac trometamol salt group.
The rats of each test group were administered with physiological saline, solution of bromfenac sodium, solution of bromfenac diethylamine salt and solution of bromfenac trometamol salt, twice per day via lavage in lavage dose of 50 mL/Kg, for consecutive 7 days, before the last administration, volumes of voix pedis of normal right and left hindfeet of each rat were measured, and the measurement was performed by blood capillary volume method. The linedrawing position at ankle joint of rat was adjusted so that the volumes of voix pedis of right and left hindfeet were about 1 mL, 0.5 hours after the last administration, 0.1 mL of newly prepared 10% egg white liquid was subcutaneously injected to voix pedis of right and left hindfeet of rats respectively, and the volumes of voix pedis of right and left hindfeet of rats were measured again at 0.5, 1, 2, 4, 6 hours after injection of egg white, and swelling rate was calculated (voix pedis swelling rate=voix pedis volume at different time after injection of egg white−voix pedis volume at the same side before injection of egg white/voix pedis volume at the same side before injection of egg white), and the results were shown in Table 5.

Setting [4] is: 0.5 hours after injection of egg white.
Where [5] appears, read: 0.5 hours after injection of egg white, lavage 50 mL/Kg twice per day for 7 days.
The mark [6] stands for this setting: 1.0 hours after injection of egg white.
Setting [7] is: 2.0 hours after injection of egg white.
[8] abbreviates: 4.0 hours after injection of egg white.
Setting [9] is: 6.0 hours after injection of egg white.
The mark [10] stands for this setting: Normal rats (before egg white), lavage 50 mL/Kg twice per day for 7 days.

Regarding `Nc1c(CC(=O)O)cccc1C(=O)c1ccc(Br)cc1` [Bromfenac trometamol salt, bromfenac trometamol salt], in data set [1], the “time at which distribution in tissue reaches maximum values (peak concentrations)” value (shortened to “time at which distribution”) worked out at 2 h. Moreover, the “concentration distributed in tissue compared with bromfenac sodium” value in data set [1] is “significantly greater”. The concentration at 0 h in data set [1] (muscle tissue under skin of administration site, topical, 0 hours (before administration)) stood at 0 ng/mL. Further, the concentration at 2 h in data set [1] (muscle tissue under skin of administration site, topical, 2 hours after administration of 1 g preparation on back skin) worked out at 852 ng/mL. Further, in data set [1] (muscle tissue under skin of administration site, topical, 4 hours after administration of 1 g preparation on back skin), the concentration at 4 h was 1490 ng/mL. This molecule yielded a concentration at 6 h in data set [1] (muscle tissue under skin of administration site, topical, 6 hours after administration of 1 g preparation on back skin) of 1100 ng/mL. In data set [1] (muscle tissue under skin of administration site, topical, 8 hours after administration of 1 g preparation on back skin), the concentration at 8 h was found to be 790 ng/mL. Moreover, the concentration at 10 h in data set [1] (muscle tissue under skin of administration site, topical, 10 hours after administration of 1 g preparation on back skin) amounted to 201 ng/mL. Further, the “effect on swelling of auricle caused by xylene in mice” value (from here on “effect on swelling of auricle caused”) in data set [2] was “significant inhibition effects”. The same molecule returned a Swelling degree in data set [2] of 5.41 ± 0.47 mg. Moreover, the “voix pedis swelling rate” value is reported as “(0.63 ± 0.09)” in data set [3] (setting [4]); “(0.57 ± 0.10)” in data set [3] (setting [6]); “(0.44 ± 0.13)” in data set [3] (setting [7]); “(0.20 ± 0.10)” in data set [3] (setting [8]); “(0.10 ± 0.07)” in data set [3] (setting [9]); “(0.63 ± 0.09)” in data set [3] (Normal rats). Also, the voix pedis volume in data set [3] (setting [5]) is 1.59 ± 0.09 mL; in data set [3] (setting [6]), 1.54 ± 0.11 mL; in data set [3] (setting [7]) it was 1.41 ± 0.13 mL; in data set [3] (setting [8]), 1.24 ± 0.10 mL; in data set [3] (setting [9]), 1.08 ± 0.08 mL; in data set [3] (setting [10]), 1.59 ± 0.09 mL. Further, the “effect on voix pedis swelling caused by egg white in rats” value (“effect on voix pedis swelling caused” for short) in data set [3] is “significantly inhibit”.
`Nc1c(CC(=O)O)cccc1C(=O)c1ccc(Br)cc1` [Bromfenac diethylamine salt, bromfenac diethylamine salt]: the “Concentration in muscle tissue” value amounted to 0 ng/mL in data set [1] (0 hours (before administration)); 1092.1 ng/mL in data set [1] (2 hours after administration of 1 g preparation on back skin); 2657.6 ng/mL in data set [1] (4 hours after administration of 1 g preparation on back skin); 1803.7 ng/mL in data set [1] (6 hours after administration of 1 g preparation on back skin); 1108.3 ng/mL in data set [1] (8 hours after administration of 1 g preparation on back skin); 262.4 ng/mL in data set [1] (10 hours after administration of 1 g preparation on back skin). Further, in data set [1], the “time at which distribution” value was determined as 2 h. Besides, in data set [1], the “concentration distributed in tissue compared with bromfenac sodium” value is “significantly greater”. Also, the “effect on swelling of auricle caused” value in data set [2] is reported as “significant inhibition effects”. In data set [2], this molecule displayed a Swelling degree of 5.37 ± 0.50 mg. Moreover, the “voix pedis swelling rate” value is reported as “(0.65 ± 0.08)” in data set [3] (setting [4]); “(0.58 ± 0.08)” in data set [3] (setting [6]); “(0.41 ± 0.08)” in data set [3] (setting [7]); “(0.23 ± 0.05)” in data set [3] (setting [8]); “(0.08 ± 0.06)” in data set [3] (setting [9]); “(0.65 ± 0.08)” in data set [3] (Normal rats). Moreover, the voix pedis volume in data set [3] (setting [5]) is 1.61 ± 0.08 mL; in data set [3] (setting [6]), 1.55 ± 0.09 mL; in data set [3] (setting [7]) it was 1.38 ± 0.06 mL; in data set [3] (setting [8]) it was 1.21 ± 0.06 mL; in data set [3] (setting [9]) it was 1.06 ± 0.08 mL; in data set [3] (setting [10]), 1.61 ± 0.08 mL. Also, the “effect on voix pedis swelling caused” value in data set [3] is listed as “significantly inhibit”.
With `Nc1c(CC(=O)[O-])cccc1C(=O)c1ccc(Br)cc1.[Na+]` [Bromfenac sodium, 2-amino-3-(4-bromobenzoyl)phenylacetic acid sodium salt sesquialter hydrate, reference compound], in data set [1], the “time at which distribution” value was determined as 2 h. In addition, the concentration at 0 h in data set [1] (in vivo, 0 hours (before administration)) is 0 ng/mL. For the same molecule, the concentration at 2 h in data set [1] (in vivo, 2 hours after administration of 1 g preparation on back skin) turned out to be 238 ng/mL. This molecule also gave a concentration at 4 h in data set [1] (in vivo, 4 hours after administration of 1 g preparation on back skin) of 693 ng/mL. Besides, in data set [1] (in vivo, 6 hours after administration of 1 g preparation on back skin), the concentration at 6 h came out at 509 ng/mL. Moreover, in data set [1] (in vivo, 8 hours after administration of 1 g preparation on back skin), the concentration at 8 h worked out at 313 ng/mL. For the same molecule, the concentration at 10 h in data set [1] (in vivo, 10 hours after administration of 1 g preparation on back skin) was 130 ng/mL. In data set [2], the “effect on swelling of auricle caused” value is “significant inhibition effects”. Further, in data set [2], the Swelling degree came to 5.45 ± 0.36 mg. The “voix pedis swelling rate” value in data set [3] (setting [4]) is given as “(0.58 ± 0.06)”; in data set [3] (setting [6]) it was “(0.53 ± 0.07)”; in data set [3] (setting [7]), “(0.40 ± 0.09)”; in data set [3] (setting [8]), “(0.22 ± 0.08)”; in data set [3] (setting [9]) it was “(0.06 ± 0.05)”; in data set [3] (Normal rats), “(0.58 ± 0.06)”. The voix pedis volume in data set [3] (setting [5]) was determined as 1.56 ± 0.11 mL; in data set [3] (setting [6]), 1.51 ± 0.10 mL; in data set [3] (setting [7]) it was 1.39 ± 0.11 mL; in data set [3] (setting [8]), 1.20 ± 0.10 mL; in data set [3] (setting [9]) it was 1.04 ± 0.06 mL; in data set [3] (setting [10]), 1.51 ± 0.11 mL. Moreover, the “effect on voix pedis swelling caused” value in data set [3] is given as “significantly inhibit”.
